Assay results reported in patent publication US6083981A, “Sulfonamide substituted aspartic acid interleukin-1β converting enzyme inhibitors” (Warner-Lambert Company, priority 1999, dated 2000).

How the values were obtained:
ICE [1] = target: T1, ICE (Homo sapiens, UniProt P29466); experiment: ICE Colorimetric Dose-Response (IC50) Assay; format: biochemical; conditions: 24 nM ICE, 60 min preincubation, 50 μM Ac-Tyr-Val-Ala-Asp-pNA, pH 7.5, 25° C
T1 sequence (P29466 120-297 limits assumed): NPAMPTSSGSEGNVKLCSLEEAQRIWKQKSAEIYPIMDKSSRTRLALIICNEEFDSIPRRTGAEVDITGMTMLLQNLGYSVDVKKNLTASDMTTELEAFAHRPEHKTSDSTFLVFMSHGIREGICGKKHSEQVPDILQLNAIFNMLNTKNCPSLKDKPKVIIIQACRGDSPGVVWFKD
T1 sequence (P29466 317-404 limits assumed): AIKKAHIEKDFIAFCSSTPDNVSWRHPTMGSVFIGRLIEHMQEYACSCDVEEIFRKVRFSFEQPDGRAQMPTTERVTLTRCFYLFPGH
Protocol: Aliquots of each dilution are transferred to a microtitre plate in triplicate.
(§1) ICE enzyme is diluted to approximately 24 nM in HGE buffer (100 mM Hepes pH 7.5, 0.5 mM EDTA, 20% glycerol, 0.1% Bovine Serum Albumin (BSA), and activated by adding dithiothreitol (DTT) to a final concentration of 5 mM. The activated enzyme is then aliquoted into wells containing inhibitor or vehicle, and the plate is preincubated for 60 minutes at ambient temperature. Substrate (Ac--Tyr--Val--Ala--Asp--pNA) is added to each well to a final concentration of 50 μM, and plates are placed in the microtitre plate-reader thermostated to 25° C. Beginning 5 minutes after addition of substrate, absorbance (405 nm) of wells is monitored for 1 hour, and activity is calculated as the mean rate of change in absorbance during this interval.

ICE [2] = target: T1, ICE; experiment: ICE inhibition, fluorometric Ki (Ac-Tyr-Val-Ala-Asp-AMC substrate); format: biochemical; conditions: 0.24 nM ICE, 15 μM Ac-Tyr-Val-Ala-Asp-AMC, reversible competitive model
Protocol: Substrate hydrolysis is monitored for 300 seconds by observing the fluorescence of released AMC using excitation at 380 nm and emission at 460 nm. Mean rates of substrate hydrolysis are evaluated by linear-regression analysis of the fluorescence vs time traces.

Ich-2 (Caspase-4) = target: T2, Ich-2 (Caspase-4) (Homo sapiens, UniProt P49662); experiment: Ich-2 (Caspase-4) Colorimetric Dose-Response (IC50) Assay; format: biochemical; conditions: 64 nM enzyme, 60 μM Ac-Leu-Glu-Val-Asp-pNA
T2 sequence (P49662 81-270 limits assumed): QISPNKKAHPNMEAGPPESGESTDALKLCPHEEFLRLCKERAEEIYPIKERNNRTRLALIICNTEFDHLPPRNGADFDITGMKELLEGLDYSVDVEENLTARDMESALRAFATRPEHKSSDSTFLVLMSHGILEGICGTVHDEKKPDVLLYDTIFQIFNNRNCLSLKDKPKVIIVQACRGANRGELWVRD
T2 sequence (P49662 290-377 limits assumed): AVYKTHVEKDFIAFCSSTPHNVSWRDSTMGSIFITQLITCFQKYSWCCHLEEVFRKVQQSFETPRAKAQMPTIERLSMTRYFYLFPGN
Protocol: as §1
Inhibition of Ich-2 enzyme is assayed as described above for ICE, except that enzyme is used at 64 nM, and 60 μM of the Ich-2-specific substrate Ac--Leu--Glu--Val--Asp--pNA is used instead of the ICE substrate Ac--Tyr--Val--Ala--Asp--pNA.

[3] = PBMC viability (MTT), compound toxicity; format: cell-based; conditions: human, MTT viability, additional four hours, concentration which kills 50% of the cells, read-out: PBMC TC50
Description: (§2) Further evidence that compounds of Formula I, II, and III are inhibitors of ICE is provided by their ability to inhibit IL-1β production in human peripheral blood mononuclear cells (PBMCs) as described herein. PBMCs are isolated from heparinized blood by centrifugation over a ficoll cushion, then washed three times with phosphate-buffered saline. PBMCs are suspended in a medium containing RPMI 1640 with glutamine, penicillin, streptomycin, and 2% human AB serum, then plated at 10^6 cells per well in 96 well flat bottom plates. PBMCs are stimulated overnight with 10 ng/mL of lipopolysaccharide (LPS, E. Coli strain 0111:B4; Calbiochem) in the presence or absence of a compound of Formula I. Medium is harvested and the level of mature IL-1β was determined using an ELISA kit from R & D Systems. Compound inhibition is assessed by determining the concentration of agent which reduces IL-1β levels by 50%. Cells were cultured for an additional four hours in the presence of 3-(4,5-dimethylthiazol-2-yl)-2,5-diphenyltetrazolium bromide (MTT) to determine viability. Compound toxicity can, therefore, be assessed by determining the concentration of agent which kills 50% of the cells (IC50).

[4] = test system: IL-1β production in human peripheral blood mononuclear cells (PBMCs); experiment: PBMC Cellular Assay, inhibition of LPS-stimulated IL-1β production; format: cell-based; conditions: PBMC; mature IL-1β by ELISA, 10 ng/mL LPS overnight, 2% human AB serum
Description: as §2

| Molecule | IC50 (ICE [1]) | Ki (ICE [2]) | IC50 (Ich-2 (Caspase-4)) | CC50 [3] | IC50 [4] |
| --- | --- | --- | --- | --- | --- |
| 3-(2-Methylbutoxy-Benzenesulfonylamino)-4-Oxo-Butyric Acid [Example 30] | 37 µM | 4.2 µM | 221 µM |  |  |
| O=C[C@H](CC(=O)O)NS(=O)(=O)c1ccccc1 [Example 2, 3-Benzenesulfonylamino-4-Oxo-Butyric Acid] | 86.8 µM | 6.8 µM | 259 µM |  | > 100 µM |
| Cc1ccc(Oc2ccccc2S(=O)(=O)N[C@H](C=O)CC(=O)O)cc1 [Example 5, 4-Oxo-3-(2-p-Tolyloxy-Benzenesulfonylamino)-Butyric Acid] | 8.8 µM |  | 18 µM | > 100 µM | 67.5 µM |
| CC(C)c1cccc(Oc2ccccc2S(=O)(=O)N[C@H](C=O)CC(=O)O)c1 [Example 8, 3-[2-(3-lsopropyl-Phenoxy)-Benzenesulfonylamino]-4-Oxo-Butyric Acid] | 3.7 µM | 0.41 µM | 6.1 µM | > 100 µM | 45 µM |
| Cc1ccc(-c2ccccc2S(=O)(=O)NC(C=O)CC(=O)O)cc1 (stereo not shown) [Example 9, 3-(4'-Methyl-Biphenyl-2-Sulfonylamino)-4-Oxo-Butyric Acid] | 66.2 µM | 6.4 µM | 109 µM |  |  |
| CC(C)COc1ccccc1S(=O)(=O)NC(C=O)CC(=O)O (stereo not shown) [Example 10, 3-(2-Isobutoxy-Benzenesulfonylamino)-4-Oxo-Butyric Acid] | 22 µM | 4.2 µM | 318 µM | > 100 µM | 90 µM |
| CCCC(C)C(=O)Nc1ccccc1S(=O)(=O)N[C@H](C=O)CC(=O)O (stereo partly shown) [Example 11, 3-[2-(2-Methyl-Pentanoylamino)-Benzenesulfonylamino]-4-Oxo-Butyric Acid] | 55 µM | 17 µM | 569 µM |  |  |
| Cc1ccccc1Oc1ccccc1S(=O)(=O)NC(C=O)CC(=O)O (stereo not shown) [Example 12, 4-Oxo-3-(2-o-Tolyloxy-Benzenesulfonylamino)-Butyric Acid] | 14 µM | 3 µM | 59 µM | > 100 µM | 90 µM |
| O=CC(CC(=O)O)NS(=O)(=O)c1ccccc1OC1CCCCC1 (stereo not shown) [Example 14, 3-(2-Cyclohexyloxy-Benzenesulfonylamino)-4-Oxo-Butyric Acid] | 20 µM | 2.3 µM | 35 µM | > 100 µM | 90 µM |
| O=CC(CC(=O)O)NS(=O)(=O)c1ccccc1OCCc1ccccc1 (stereo not shown) [Example 17, 4-Oxo-3-(2-Phenethyloxy-Benzenesulfonylamino)-Butyric Acid] | 9.2 µM | 0.9 µM | 63 µM | > 100 µM | 55 µM |
| Cc1cc(Oc2ccccc2S(=O)(=O)NC(C=O)CC(=O)O)ccc1C(C)C (stereo not shown) [Example 22, 3-[2-(4-Isopropyl-3-Methyl-Phenoxy)-Benzenesulfonylamino]-4-Oxo-Butyric Acid] | 1 µM |  | 76 µM | > 100 µM | 25 µM |
| Cc1cc(Oc2ccccc2S(=O)(=O)NC(C=O)CC(=O)O)cc(C)c1C (stereo not shown) [Example 26, 4-Oxo-3-[2-(3,4,5-Trimethyl-Phenoxy)-Benzenesulfonylamino]-Butyric Acid] | 7.8 µM |  | 23 µM | > 100 µM | 58 µM |
| Cc1ccccc1-c1ccccc1S(=O)(=O)NC(C=O)CC(=O)O (stereo not shown) [Example 32, 3-(2'-Methyl-Biphenyl-2-Sulfonylamino)-4-Oxo-Butyric Acid] | 28 µM | 7 µM | 603 µM |  |  |
| O=CC(CC(=O)O)NS(=O)(=O)c1ccccc1[N+](=O)[O-] (stereo not shown) [Example 46, 3-(2-Nitro-Benzenesulfonylamino)-4-Oxo-Butyric Acid] | 130 µM | 10 µM | 525 µM |  |  |

The remaining molecules from weak to strong by IC50 (Ich-2 (Caspase-4)), led by results:

| IC50 (ICE [1]) | Ki (ICE [2]) | IC50 (Ich-2 (Caspase-4)) | Molecule | CC50 [3] | IC50 [4] |
| --- | --- | --- | --- | --- | --- |
| 99 µM | 7.7 µM | 1970 µM | O=CC(CC(=O)O)NS(=O)(=O)c1ccccc1OCC1CCCO1 (stereo not shown) [Example 43, 4-Oxo-3-[2-(Tetrahydro-Furan-2-Ylmethoxy)-Benzenesulfonylamino]-Butyric Acid] |  |  |
| 110 µM | 31 µM | 602 µM | O=CC(CC(=O)O)NS(=O)(=O)c1cccc2ccccc12 (stereo not shown) [Example 34, 3-(Naphthalene-1-Sulfonylamino)-4-Oxo-Butyric Acid] |  |  |
| 32 µM | 7 µM | 167 µM | O=CC(CC(=O)O)NS(=O)(=O)c1ccccc1CCc1ccccc1 (stereo not shown) [Example 13, 4-Oxo-3-(2-Phenethyl-Benzenesulfonylamino)-Butyric Acid] |  |  |
| 20.3 µM | 1.6 µM | 88 µM | O=C[C@H](CC(=O)O)NS(=O)(=O)c1ccccc1-c1ccccc1 [Example 1, 3-(Biphenyl-2-Sulfoamino)-4-Oxo-Butyric Acid] | > 100 µM | > 100 µM |
|  | 7 µM | 77 µM | O=CC(CC(=O)O)NS(=O)(=O)c1ccccc1-c1cccc2ccccc12 (stereo not shown) [Example 33, 3-(2-Naphthalen-1-yl-Benzenesulfonylamino)-4-Oxo-Butyric Acid] |  |  |
| 37 µM | 3.7 µM | 70 µM | O=C[C@H](CC(=O)O)NS(=O)(=O)c1ccccc1Cc1ccccc1 [Example 3, 3-(2-Benzyl-Benzenesulfonylamino)-4-Oxo-Butyric Acid] |  |  |
| 24 µM |  | 52 µM | O=CC(CC(=O)O)NS(=O)(=O)c1ccccc1Oc1ccccc1 (stereo not shown) [Example 4, 4-Oxo-3-(2-Phenoxy-Benzenesulfonylamino)-Butyric Acid] |  |  |
| 5.8 µM | 1.3 µM | 42 µM | O=CC(CC(=O)O)NS(=O)(=O)c1ccccc1Oc1ccc2c(c1)CCCC2 (stereo not shown) [Example 16, 4-Oxo-3-[2-(5,6,7,8-Tetrahydro-Naphthalen-2-Yloxy)-Benzenesulfonylamino]-Butyric Acid] | > 100 µM | 65 µM |
| 10.8 µM |  | 33 µM | Cc1cccc(Oc2ccccc2S(=O)(=O)N[C@H](C=O)CC(=O)O)c1 [Example 7, 4-Oxo-3-(2-m-Tolyloxy-Benzenesulfonylamino)-Butyric Acid] | > 100 µM | 67.5 µM |
| 5.1 µM | 1 µM | 22 µM | O=CC(CC(=O)O)NS(=O)(=O)c1ccccc1Oc1ccc2ccccc2c1Cl (stereo not shown) [Example 15, 3-[2-(1-Chloro-Naphthalen-2-Yloxy)-Benzenesulfonylamino]-4-Oxo-Butyric Acid] | > 100 µM | 50 µM |
| 3.5 µM |  | 6.5 µM | CCC(CC)c1ccc(Oc2ccccc2S(=O)(=O)NC(C=O)CC(=O)O)cc1 (stereo not shown) [Example 25, 3-{2-[4-(1-Ethyl-Propyl)-Phenoxy]-Benzenesulfonylamino}-4-Oxo-Butyric Acid] | > 100 µM | 27 µM |
| 5.3 µM | 0.54 µM | 6.1 µM | CC(C)c1ccc(Oc2ccccc2S(=O)(=O)NC(C=O)CC(=O)O)cc1 (stereo not shown) [Example 6, 3-[2-(4-Isopropyl-Phenoxy)-Benzenesulfonylamino]-4-Oxo-Butyric Acid] | > 100 µM | 23.5 µM |
